Results: patent publication US11236044B2, “Selective inhibitors of 12(S)-lipoxygenase (12-LOX) and methods for use of the same” (THE REGENTS OF THE UNIVERSITY OF MICHIGAN, priority 2018, dated 2022)
Read-outs that look alike come from different tables or passages of the source.

Key:
[1] = Pharmacokinetic study of the inhibitors in mice blood plasma (PO and IV); type: in vivo; settings: for concentration at 2 h / concentration at 4 h / concentration at 7 h: mouse, plasma, 30 mg/kg
Experimental: Pharmacokinetic Study of the Inhibitors in Mice Blood Plasma
The blood plasma concentration of compounds A1, A2, and A4 in mice was determined following per os, oral compound administration (“PO”) and intravenous (“IV”) administration
Calibration curve. The concentration range was evaluated from 2.5-5000 ng/ml for compound A2, 1-5000 ng/ml for compound A4, and 5-5000 ng/ml for compound A1. The curve was built with linear regression with weighing (1/X2). The linear regression analysis was performed by plotting the peak area ratio (y) against the concentration (x) in ng/mL.
Instrument Conditions. The LC-MS and mass spectrometry conditions for the compounds tested are shown below.
Results. The individual and average compound A1, A2, and A4 concentration-time data for IV and PO dosed groups are listed in Table 1, and graphically presented in FIG. 1.

[2] = test system: platelet accumulation in the lung (FcγRIIa-mediated platelet activation); test: Anti-GPIX-induced HITT model for lung thrombosis; type: in vivo, transgenic mice expressing the human FcγRIIa receptor; settings: 15 mg/kg oral gavage, four hours following HITT induction, versus PEG vehicle; FIG. 5
Experimental: Adult transgenic mice (10-12 weeks old) expressing the human FcγRIIa receptor on their platelets were anesthetized as described above and were orally gavaged with 15 mg/kg of A1 or control vehicle 30-minutes prior to IV bolus injection of 0.75 mg/kg anti-GPIX to induce activation of the FcγRIIa receptor on the platelets to mimic heparin-induced thrombocytopenia and thrombosis (“HITT”) in the mouse. The anti-GPIX antibody was conjugated to DyLight 488 to visualize its binding to platelets and platelet accumulation in the lung. 4 hours post-anti-GPIX induction, the animals were sacrificed and the lungs were visualized using the Li—COR Odyssey imager.
Representative images of platelet accumulation (green) in the mouse lungs from control (PEG vehicle) and A1-treated (15 mg/kg) mice are shown in FIG. 5

[3] = test system: thrombus formation in cremaster arterioles; test: Laser-induced cremaster arteriole thrombosis model; type: in vivo; settings: WT mice, 3 mg/kg oral, twice a day for 2 days, versus PEG control; FIG. 4
Experimental: C57BL/6 wild-type (WT) control mice were purchased from Jackson Laboratories (Bar Harbor, Me., USA) and housed in the research facility at the University of Michigan. Compound A1 was synthesized and specifically formulated in Polyethylene Glycol 300 (PEG 300) for oral gavage dosing in mice for in vivo thrombosis and hemostasis studies. For laser-induced cremaster arteriole thrombosis model, mice were treated with compound A1 (3 mg/kg) or with PEG 300 via oral administration 2 times per day for 2 days prior to intravital microscopy studies on the third day.
Adult mice (10-12 weeks old) were anesthetized as described above and surgically prepared as described in detail, and a tracheal tube was inserted to facilitate breathing. The cremaster muscle was prepared and perfused with preheated bicarbonate-buffered saline throughout the experiment. DyLight 488-conjugated rat anti-mouse platelet GP1b8 antibody (0.1 μg/g; EMFRET Analytics) and Alexa Fluor 647-conjugated anti-fibrin (0.3 μg/g) or Alexa Flour 647 rat-anti mouse CD62P (3 μg/mouse) were administered by a jugular vein cannula prior to vascular injury. […] All captured images were analyzed for the change of fluorescent intensity over the course of thrombus formation after subtracting fluorescent background defined on an uninjured section of the vessel using the Slidebook program. […]

[4] = iv, IV 30 mg/kg, n=3 (outliers excluded), read-out: Concentration in Plasma, Mean
[5] = iv, IV 30 mg/kg, read-out: Concentration in Plasma, Mouse 1
[6] = iv, IV 30 mg/kg, read-out: Concentration in Plasma, Mouse 2
[7] = iv, IV 30 mg/kg, read-out: Concentration in Plasma, Mouse 3
[8] = po, PO 30 mg/kg, n=3 (outliers excluded), read-out: Concentration in Plasma, Mean
[9] = po, PO 30 mg/kg, read-out: Concentration in Plasma, Mouse 1
[10] = po, PO 30 mg/kg, read-out: Concentration in Plasma, Mouse 2
[11] = po, PO 30 mg/kg, read-out: Concentration in Plasma, Mouse 3

- Concentration in Plasma, Mouse 2 ([1]; PO 30 mg/kg, 2 h): *899.2 ng/ml
- concentration at 2 h ([1]; iv, IV 30 mg/kg, 2 h, n=3 (outliers excluded), read-out: Concentration in Plasma, Mean): 77.4 ng/mL
- concentration at 2 h ([1]; iv, IV 30 mg/kg, 2 h, read-out: Concentration in Plasma, Mouse 1): 69.6 ng/mL
- concentration at 2 h ([1]; iv, IV 30 mg/kg, 2 h, read-out: Concentration in Plasma, Mouse 2): 124 ng/mL
- concentration at 2 h ([1]; iv, IV 30 mg/kg, 2 h, read-out: Concentration in Plasma, Mouse 3): 38.8 ng/mL
- concentration at 4 h [1, 4]: 29.2 ng/mL
- concentration at 4 h [1, 5]: 46.4 ng/mL
- concentration at 4 h [1, 6]: 20.2 ng/mL
- concentration at 4 h [1, 7]: 20.9 ng/mL
- concentration at 7 h [1, 4]: 16.9 ng/mL
- concentration at 7 h [1, 5]: 36.5 ng/mL
- concentration at 7 h [1, 6]: 5.9 ng/mL
- concentration at 7 h [1, 7]: 8.3 ng/mL
- concentration at 2 h ([1]; po, PO 30 mg/kg, 2 h, n=3 (outliers excluded), read-out: Concentration in Plasma, Mean): 40.4 ng/mL
- concentration at 2 h ([1]; po, PO 30 mg/kg, 2 h, read-out: Concentration in Plasma, Mouse 1): 21 ng/mL
- concentration at 2 h ([1]; po, PO 30 mg/kg, 2 h, read-out: Concentration in Plasma, Mouse 3): 59.7 ng/mL
- concentration at 4 h [1, 8]: 52.9 ng/mL
- concentration at 4 h [1, 9]: 48.9 ng/mL
- concentration at 4 h [1, 10]: 89.8 ng/mL
- concentration at 4 h [1, 11]: 20 ng/mL
- concentration at 7 h [1, 8]: 15.2 ng/mL
- concentration at 7 h [1, 9]: 12.1 ng/mL
- concentration at 7 h [1, 10]: 24.1 ng/mL
- concentration at 7 h [1, 11]: 9.3 ng/mL
SMILES: COc1cccc(CNc2ccc(S(=O)(=O)Nc3cccc(Cl)c3)cc2)c1O [Compound A1, N-(3-chlorophenyl)-4-((2-hydroxy-3-methoxybenzyl)amino) benzenesulfonamide]
- thrombocytopenia and thrombosis (platelet accumulation) in mouse lungs [2]: inhibit thrombocytopenia and thrombosis in mouse lungs
- thrombus formation (platelet accumulation and fibrin formation) in cremaster arterioles [3]: impairs thrombus formation
